This is an account of results in patent US7416893B2, “Methods for diagnosing drug-resistant cancer cells or for identifying chemotherapeutic agents by measuring anomalous intracellular ion and/or second messenger dynamics” (Atto Bioscience, priority 2002, dated 2008).

Marks after values point to notes of the source that are not given here.

One assay deals with MCF-7 wt cells. In words: Single-cell fura-2 [Ca2+]i imaging, MCF-7 wt drug-sensitive cells. Format: cell-based, human. As to conditions: for Fold [Ca2+]i increase evoked by agonist: mean ± S.E.M.
In another assay the test system is MDA-MB-231 cells. Description: Single-cell fura-2 [Ca2+]i imaging, MDA-MB-231 wt cells. The format is cell-based, human. As to conditions: for Fold [Ca2+]i increase evoked by agonist: mean ± S.E.M. An excerpt:
(§1) More specifically, human breast cancer cell (“bc”) lines were obtained from the following sources: wild type (“wt”), estrogen receptor-positive MCF-7 cells were obtained from three different sources: American Type Culture Collection (ATCC, Manassas, Va.), the Lombardi Cancer Center, Georgetown University (Washington, D.C.) and the National Cancer Institute, NIH (Bethesda, Md.) and will be referred to as “wt”, DS MCF-7 throughout the paper. Wild type, estrogen receptor-negative MDA-MB-231 cells were obtained from the Lombardi Cancer Center, Georgetown University. Five DR, MCF-7-derived clonal cell lines were used in this study. MCF-7/ADR (selected by exposure and resistance to adriamycin, a DNA intercalating agent and DNA topoisomerase II inhibitor; (Vickers, P. J. et al. Mol. Endocrinol. 2:886-892, 1988) were from the Lombardi Cancer Center, Georgetown University; MCF-7/C4 (selected, after mutagenesis, for resistance to camptothecin, a DNA topoisomerase I inhibitor) were obtained from Dr. Y. Pommier (NCI, NIH, Bethesda, Md.) (Fujimori, A. et al. Mol. Pharmacol. 50:1472-1478, 1996); MCF-7/VP cells (selected by exposure and resistance to VP-16 etoposide, a DNA topoisomerase II inhibitor; Schneider, E. et al. Cancer Res. 54:152-158, 1994) were obtained from Dr. E. Schneider, Wadsworth Center, New York State Dept. of Health, Albany, N.Y.; MCF-7/Melph cells (selected by exposure and resistance to melphalan, a DNA alkylating agent; Moscow, J A et al. Br. J. Cancer 68:732-737, 1993) were obtained from Dr. J. Moscow, University of Kentucky, Lexington, Ky.
(§2) For data mentioned below, [Ca^2+]1 was measured by single-cell fura-2 excitation ratio imaging as previously described (DeBernardi, M. A. et al. Mol Pharmacol 43:451-58, 1993). Cells, grown on 25 mm round, 1 mm-thick glass coverslips were loaded with cell-permeable fura-2 AM (5 uM; Molecular Probes, Eugene, Oreg.) at 37° C. in growth medium for 30-60 min. MCF-7/ADR, MCF-7/Ad-Vp, and C6-B and E cells were difficult to load with fura-2 AM, likely reflecting a high degree of dye extrusion (Homolya, L. et al. J Biol. Chem. 268:21493-96, 1993). […] Cells were then thoroughly washed with buffer H/H (Ham's F-10 nutrient mixture supplemented with 20 mM Na-HEPES, pH 7.4) and let sit for 10 min at room temperature to allow complete fura-2 AM de-esterification. Cells were imaged at room temperature in H/H buffer using an Attofluor RatioVision Digital Fluorescence Microscopy System (Atto Bioscience, Rockville, Md.) equipped with a Zeiss Axiovert 135 microscope and a F-Fluar 40×, 1.3 na, oil-immersion objective. Fura-2 was excited at 334 and 380 nm with the emission monitored at >510 nm; the 334/380 nm excitation ratio increases as a function of the [Ca^2+]1. Calibration was done in vitro with 10 uM fura-2 pentapotassium salt in the presence of 1 mM CaCl2 or 1 mM EGTA and the 334/380 nm excitation ratio was converted to [Ca^2+]1 nM values (Grynkiewicz et al J Biol Chem 260:3440-3450, 1985). For each coverslip, 10-99 cells were simultaneously imaged in a given microscopic field and [Ca^2+]1 was recorded from each individual cell in resting and stimulated conditions. Single Ca^2+ profiles were averaged to yield [Ca^2+]1 population means (±S.E.M.) that were plotted versus time. […]
(§3) Single cell Ca^2+ dynamics were monitored by single cell fluorescence digital imaging according to the method previously described by DeBernardi, M. A. et al. Mol Phamacol 43: 451-458 (1993). […]

A further assay relates to MCF-7/ADR cells. Description: Single-cell fura-2 [Ca2+]i imaging, MCF-7/ADR drug-resistant cells. Format: cell-based, human. As to conditions: for Fold [Ca2+]i increase evoked by agonist: mean ± S.E.M.
In the next assay the test system is MCF-7/AdVp cells. In words: Single-cell fura-2 [Ca2+]i imaging, MCF-7/Ad-Vp drug-resistant cells. Format: cell-based, human. The following applies: mean ± S.E.M.
The next assay concerns MCF-7/VP cells. In words: Single-cell fura-2 [Ca2+]i imaging, MCF-7/VP drug-resistant cells. Format: cell-based, human. The following applies: mean ± S.E.M.
Another assay concerns MCF-7/C4 cells. In words: Single-cell fura-2 [Ca2+]i imaging, MCF-7/C4 drug-resistant cells. Format: cell-based, human. As to conditions: for Fold [Ca2+]i increase evoked by agonist: mean ± S.E.M.
Excerpt: as §1, §2, §3

The test system of another assay is MCF-7/Melph cells. In words: Single-cell fura-2 [Ca2+]i imaging, MCF-7/Melph drug-resistant cells. The format is cell-based, human. As to conditions: mean ± S.E.M.
For assay [1], the system named is human breast cancer cells (DS and DR). In words: Single-cell fura-2 [Ca2+]i imaging, DS and DR human breast cancer cells (statements across lines). Format: cell-based. The following applies: for Effect on decay kinetics of ATP-evoked response: 2 or 24 hr, VER/CSA in wt or MCF-7/ADR, GEN/PRO in wt or MCF-7/VP; for Effect of acute pre-treatment on ATP-induced [Ca2+]i responses: 10 min pre-treatment, VER 25 uM, CSA 10 uM, GEN 100 uM, PRO 2 mM.
Method: (§6) Cells, grown on 25 mm round, 1 mm-thick glass coverslips were loaded with cell-permeable fura-2 AM (5 uM; Molecular Probes, Eugene, Oreg.) at 37° C. in growth medium for 30-60 min. […] Cells were then thoroughly washed with buffer H/H (Ham's F-10 nutrient mixture supplemented with 20 mM Na-HEPES, pH 7.4) and let sit for 10 min at room temperature to allow complete fura-2 AM de-esterification. […] For each coverslip, 10-99 cells were simultaneously imaged in a given microscopic field and [Ca^2+]1 was recorded from each individual cell in resting and stimulated conditions. Single Ca^2+ profiles were averaged to yield [Ca^2+]1 population means (±S.E.M.) that were plotted versus time.
(§7) Cells were grown as monolayers on glass supports and labeled with the cell-permeable fluorescent dye, Fura-2 (Molecular Probes, Inc.).
(§8) Basal [Ca^2+]1 levels and responses to ATP (50-100 uM), UTP (50-100 uM), BK (10 uM), THR (5 uM), or TG (1 uM) were studied in single cells. […] Ca^2+ responses were compared between pairs of DS and DR clones tested in parallel (MCF-7/ADR cells were compared to their parental wt, DS line obtained from Georgetown University; MCF-7/Ad-Vp cells were compared to the NIH wt, DS line; other DR clones were compared mainly with wt, DS MCF-7 cells from ATCC; C6 clones resistant to doxorubicin were compared to their wild type parental line.
Human breast cancer cells loaded with Fura-2, were exposed to various agonists and [Ca^2+]1 responses from single cells were recorded.
(§9) DR and DS cells were then exposed to the modulators for 2 or 24 hr and challenged with ATP.

Assay [2] concerns C6 rat glioblastoma clone A. Description: Single-cell fura-2 [Ca2+]i imaging, C6 clone A. The format is cell-based. As for the experimental part: (§4) C6 rat glioblastoma cell lines: Wild type cells and progressively doxorubicin-resistant clones were obtained from Dr. J. Robert, Institute Bergonie, Bordeaux, France. Clones were selected by exposure to increasing doses of doxorubicin: Clone A, 0.001 μg/ml; Clone B, 0.1 μg/ml, and Clone E, 0.5 μg/ml.
(§5) For data mentioned below, [Ca^2+]1 was measured by single-cell fura-2 excitation ratio imaging as previously described (DeBernardi, M. A. et al. Mol Pharmacol 43:451-58, 1993). Cells, grown on 25 mm round, 1 mm-thick glass coverslips were loaded with cell-permeable fura-2 AM (5 uM; Molecular Probes, Eugene, Oreg.) at 37° C. in growth medium for 30-60 min. […] Cells were imaged at room temperature in H/H buffer using an Attofluor RatioVision Digital Fluorescence Microscopy System (Atto Bioscience, Rockville, Md.) equipped with a Zeiss Axiovert 135 microscope and a F-Fluar 40×, 1.3 na, oil-immersion objective. Fura-2 was excited at 334 and 380 nm with the emission monitored at >510 nm; the 334/380 nm excitation ratio increases as a function of the [Ca^2+]1. […] For each coverslip, 10-99 cells were simultaneously imaged in a given microscopic field and [Ca^2+]1 was recorded from each individual cell in resting and stimulated conditions. […]

Assay [3] deals with C6 rat glioblastoma clone B. In words: Single-cell fura-2 [Ca2+]i imaging, C6 clone B. The format is cell-based. How it is done: as §4, §5
Assay [4] deals with C6 rat glioblastoma clone E. In words: Single-cell fura-2 [Ca2+]i imaging, C6 clone E. Format: cell-based. How it is done:
as §4, §5

The test system of the next assay is C6 DR clones A, B and E. Description: Single-cell fura-2 [Ca2+]i imaging, all C6 DR clones. Format: cell-based, rat. As to conditions: all the clones. As for the experimental part: as §4, §5
The subject of assay [5] is C6 rat astrocytoma clone A. The following applies: cited from earlier work.
In assay [6] the test system is C6 rat astrocytoma clone B. As to conditions: cited from earlier work.
Assay [7] relates to C6 rat astrocytoma clone E. As to conditions: cited from earlier work.

Excerpt for MCF-7 wt cells: More specifically, human breast cancer cell (“bc”) lines were obtained from the following sources: wild type (“wt”), estrogen receptor-positive MCF-7 cells were obtained from three different sources: American Type Culture Collection (ATCC, Manassas, Va.), the Lombardi Cancer Center, Georgetown University (Washington, D.C.) and the National Cancer Institute, NIH (Bethesda, Md.) and will be referred to as “wt”, DS MCF-7 throughout the paper. […] Five DR, MCF-7-derived clonal cell lines were used in this study.
as §6, §7, §8
(§10) Cells were labeled with Fura-2 and imaged. After 30-60 sec., the agonists were applied and calcium responses were recorded in single cells. The fold increase in [Ca^2+]1 were calculated and the average values from all the experiments were used in this table.
(§11) Cells were loaded with Fura-2 and imaged in the absence or presence of EGTA, which is a calcium chelator. Cells were challenged with ATP and Ca responses were recorded. The magnitude and decay t1/2 of the responses were calculated and the respective mean of all the experiments was compared.
Method for MCF-7/ADR cells: as §6, §7, §8, §10, §11, §9
Method for MCF-7/AdVp cells: as §6, §7, §8, §10
Method for MCF-7/VP cells: as §6, §7, §8, §10

For `Nc1ncnc2c1ncn2[C@@H]1O[C@H](COP(=O)(O)OP(=O)(O)OP(=O)(O)O)[C@@H](O)[C@H]1O` [ATP], the “ATP-evoked [Ca2+]i, fold increase” value in the assay with MCF-7 wt cells (EGTA-containing Buffer) is given as 6.2 ± 2.1 fold; with MCF-7 wt cells (Standard Buffer) it was 8.1 ± 2.4^b fold; in the assay on MDA-MB-231 cells (EGTA-containing Buffer) it was 26.0 ± 8.1 fold; in the assay on MDA-MB-231 cells (Standard Buffer), 16.5 ± 4.8 fold; in the assay on MCF-7/ADR cells (EGTA-containing Buffer), 2.4 ± 0.3 fold; in the assay on MCF-7/ADR cells (Standard Buffer), 3.7 ± 0.7 fold. For the same molecule, the “ATP-evoked [Ca2+]i, fold increase” value stood at 4.9 ± 0.4 fold in the assay with MCF-7/C4 cells (EGTA-containing Buffer) and 5.8 ± 0.9 fold with MCF-7/C4 cells (Standard Buffer). Besides, the “Fold [Ca2+]i increase evoked by agonist” value in the assay on MCF-7 wt cells is 7.9 ± 1.8^a (n = 67) fold; with MDA-MB-231 cells it was 16.5 ± 4.8 fold; in the assay on MCF-7/ADR cells, 2.9 ± 0.7 (n = 25) fold; with MCF-7/AdVp cells, 4.5 ± 1.2 (n = 12) fold; in the assay with MCF-7/VP cells, 4.4 ± 1.2 (n = 11) fold; in the assay with MCF-7/C4 cells, 5.9 ± 0.8 (n = 12) fold. In the assay with MCF-7/Melph cells, the “Fold [Ca2+]i increase evoked by agonist” value is 16.0 ± 6.1 fold. Also, the “ATP-increased [Ca2+]i decay kinetics faster in absence than in presence of extracellular Ca2+” value in assay [1] (MCF-7/ADR and MCF-7/C4 cells, EGTA vs standard buffer) is on record as at least 60%. Further, the “[Ca2+]i increase when applied following TG” value in [1] (MCF-7/C4, MCF-7/VP and MCF-7/Ad-Vp cells) is “modest and transient”. Further, in [1] (MCF-7 and MDA-MB-231 wt cells, EGTA vs standard buffer), the “ATP-increased [Ca2+]i decay kinetics faster in Ca2+-free conditions” value is recorded as at most 40%. Besides, in [1] (MCF-7 wt and MCF-7/ADR cells), the “Ca2+ response evoked when applied following TG” value is reported as “failed to evoke”.

Turning to `C/C=C(/C)C(=O)O[C@H]1C(C)=C2[C@H]([C@@H]1OC(=O)CCCCCCC)[C@@](C)(OC(C)=O)C[C@H](OC(=O)CCC)[C@@]1(O)[C@H]2OC(=O)[C@@]1(C)O` [TG, thapsigargin], the “Fold [Ca2+]i increase evoked by agonist” value with MCF-7 wt cells is reported as 2.8 ± 0.5 fold; with MDA-MB-231 cells it was 3.5 ± 0.9 (n = 3) fold; in the assay on MCF-7/ADR cells, 2.7 ± 0.7 fold; with MCF-7/AdVp cells, 2.4 ± 0.7 fold; with MCF-7/VP cells it was 1.5 ± 0.1 (n = 6) fold; in the assay with MCF-7/C4 cells, 3.4 ± 0.8 (n = 7) fold. For the same molecule, the “[Ca2+]i increase when applied after ATP” value in [1] (all DR clones and MDA-MB-231 wt, except MCF-7 wt and MCF-7/VP) was “able to increase”. Also, the “Fold increase in [Ca2+]i” value in [1] (all clones, applied as the first drug) was around 3 fold. Also, the figures for the “Induced [Ca2+]i increase compared with C6 parental cells” value in assay [2], in [3] and in assay [4] were “greater”, “much reduced response” and “much reduced response”, respectively. Besides, in the assay on C6 DR clones A, B and E, the “[Ca2+]i decay kinetics after stimulation, compared with wild type cells” value is “comparable or faster”.

Regarding α-thrombin, the “Fold [Ca2+]i increase evoked by agonist” value with MCF-7 wt cells is reported as 2.8 ± 0.1 (n = 3) fold; in the assay on MDA-MB-231 cells, 13.5 ± 5.1 fold; with MCF-7/ADR cells, 2.8 ± 1.1 (n = 3) fold; in the assay on MCF-7/C4 cells it was 3.3 ± 0.3 (n = 3) fold.

For the molecule `O=c1ccn([C@@H]2O[C@H](COP(=O)(O)OP(=O)(O)OP(=O)(O)O)[C@@H](O)[C@H]2O)c(=O)[nH]1` [UTP], the “Fold [Ca2+]i increase evoked by agonist” value in the assay with MCF-7 wt cells was found to be 6.0 ± 1.3 fold; in the assay with MCF-7/ADR cells, 2.2 ± 0.3 fold; with MCF-7/AdVp cells it was 3.7 ± 0.8 fold; with MCF-7/VP cells, 5.2 ± 1.9 fold; in the assay on MCF-7/Melph cells, 3.7 ± 0.3 fold.

In the case of `CCCN(CCC)S(=O)(=O)c1ccc(C(=O)O)cc1` [PRO, probenecid], in assay [1], the “Effect on decay kinetics of ATP-evoked response” value is on record as “not affected” and the “Effect of acute pre-treatment on ATP-induced [Ca2+]i responses” value is given as “did not affect”.

On to `O=c1c(-c2ccc(O)cc2)coc2cc(O)cc(O)c12` [GEN, genistein], for which, in [1], the “Effect on decay kinetics of ATP-evoked response” value is recorded as “not affected” and the “Effect of acute pre-treatment on ATP-induced [Ca2+]i responses” value was “did not affect”.

Take `COc1cccc2c1C(=O)c1c(O)c3c(c(O)c1C2=O)C[C@@](O)(C(=O)CO)C[C@@H]3O[C@H]1C[C@H](N)[C@H](O)[C@H](C)O1` [adriamycin]: the results for the “Fold resistance (dose to kill 50% of DR cells vs wt, DS cells)” value in assay [5], in assay [6] and in assay [7] were 7 fold, 33 fold and 400 fold, respectively.
